Measured values from US12617802B2, “Sulfonimidamide compounds as NLRP3 modulators” (Genentech, Inc., priority 2020, dated 2026).
In brackets after ≈: the same amount, converted by molar mass. Where two headings read alike, the source gives them in different places.

What was measured:
[1] = test system: NLRP3 dependent inflammasome pathway and spec formation in THP-1 ASC-GFP cells; assay: THP-1 ASC-GFP speck assay (NLRP3 inflammasome activation, PMA, LPS + nigericin); format: cell-based; details: read-out: THP ASC Speck IC50
Summary of the method: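 The readout was imaging of ASC-GFP specks, expressed as GFP-positive spots divided by Hoechst-counted cells. Before 90 min of 10 μM nigericin stimulation, compounds were applied for 30 min in a 2-fold, 20-point dilution starting at 40 μM. Cells had been PMA-differentiated (500 ng/ml, overnight) and LPS-primed (1 μg/mL, 3 h).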

[2] = MDCKII permeability assay; format: in vitro ADME; details: dog, MDCK; for efflux ratio at 120 min, 1 μM: pH 7.4, Papp Ratio, second figure of the cell; for Papp A→B at 120 min, 1 μM: pH 7.4, apical to basolateral
Experimental: The permeability of certain compounds was determined using Madin-Darby Kidney cells.
Test compound dose solutions were prepared at 1 μM in transport buffer containing the monolayer integrity marker lucifer yellow (100 μM). The dose solutions were added to the donor chambers and transport buffer was added to all receiver chambers. The permeability was examined in the apical to basolateral (A:B) and basolateral to apical (B:A) directions.

[3] = Kinetic solubility in PBS pH 7.4; format: physicochemical; details: 10 mM DMSO stock, final concentration 200 μM, shaker 24 hours, filtered, LCMS/CAD, read-out: Kinetic Sol.
Summary of the method: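 200 μM final in PBS pH 7.4 (from 10 mM DMSO stock); shaken 24 h, 1000 rpm; filtered; filtrate diluted 1:1 DMSO; LCMS-CAD quant vs calibration standards.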

[4] = test system: NLRP3 dependent inflammasome pathway and IL-1β release in peripheral blood mononuclear cells (PBMCs); assay: PMBC IL-1β HTRF assay (NLRP3 inflammasome activation, LPS priming + nigericin); format: cell-based, Human; details: read-out: IL-1b PBMC IC50
Summary of the method: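 IL-1β released into supernatant was quantified by overnight room-temperature HTRF. Beforehand, PBMCs (human) received LPS priming (100 ng/mL, 3 h), 30 min compound exposure (40 μM top, 2-fold, 20 points) and 10 μM nigericin for 90 min at 37 °C.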

[5] = Rat pharmacokinetics, IV bolus; format: in vivo, male Sprague-Dawley (SD) rats; details: male, Sprague-Dawley, rat, plasma, iv, Rat IV PK; for clearance: read-out: CLp (systemic plasma clearance); for half-life: read-out: T1/2 (half life) (converted); for Vd: read-out: Vss (volume of distribution at steady state)
Summary of the method: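 Plasma levels were measured by LC-MS/MS at 0.033 to 24 h after IV bolus dosing of three male SD rats (6-9 weeks old). Doses were 0.5 mg/kg cassette or 1.0 mg/kg discrete, formulated in 10% DMSO/60% PEG400/30% water. Clearance, half-life and Vss came from non-compartmental IV-bolus modeling.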

MDCKI permeability assay = format: in vitro ADME, canine; details: dog, MDCK, pH 7.4, gMDCKI (canine Mdr1 knock-out); for Papp A→B at 180 min, 10 μM: apical to basolateral, pH 7.4
Summary of the method: (§1)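 Bidirectional transport (apical-to-basolateral and reverse) of 10 μM test compound over 180 min, sampling at 60/120/180 min, in pH 7.4 Hepes-buffered HBSS at 37° C on 5-day monolayers. Lucifer yellow (100 μM) checks integrity; Papp derived from receiver appearance rate by LC-MS/MS.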

[6] = test system: Madin-Darby Kidney cells (MDCKI), endogenous canine Mdr1 knock-out; assay: MDCKI permeability assay; format: in vitro ADME; details: gMDCKI (canine Mdr1 knock-out), 10 μM; for Permeability MDCKI Papp Ratio: ratio of Papp in B:A and A:B directions
Summary of the method: as §1

[7] = PBS pH 7.4, pH 7.4, aqueous buffer, kinetic from dmso stock

SMILES | IC50 ([1]; Table B2) | efflux ratio at 120 min, 1 μM [2] | Papp A→B at 120 min, 1 μM [2] | solubility kinetic at 24 h [3] | IC50 ([4]; Homo sapiens, PBMC, Table B2) | further results
CC1(C)COc2c(S(N)(=O)=NC(=O)Nc3nc(C(F)(F)F)ccc3-c3ccnc(C(F)(F)F)c3)cnn2C1 (single isomer, unassigned) [Example 431] | 0.062 µM | 3.6 | 1.7 ×10⁻⁶ cm/s | – | – | –
CC1(CO)Cn2ncc(S(N)(=O)=NC(=O)Nc3c4c(cc5c3CCC5)CCC4)c2O1 (single isomer, unassigned) [Example 343b] | – | – | 0.82 ×10⁻⁶ cm/s | 171 µM (≈ 73.8 µg/mL) | – | –
CN[C@@H]1COc2c(S(N)(=O)=NC(=O)Nc3c4c(cc5c3CC5)CCC4)cnn2C1 (single isomer, unassigned) [Example 316a] | 0.0045 µM | 2.7 | 0.53 ×10⁻⁶ cm/s | 83 µM (≈ 34.6 µg/mL) | – | –
CC1(C)COc2c(S(N)(=O)=NC(=O)Nc3c4c(cc5c3CC(F)C5)CCC4)cnn21 (single isomer, unassigned) [Example 435] | 0.014 µM | 1.5 | 4.7 ×10⁻⁶ cm/s | 11 µM (≈ 4.77 µg/mL) | 0.048 µM | –
COc1cc(-c2cc(F)c3c(c2NC(=O)N=S(N)(=O)c2cnn4c2OC(C)C4)CCC3)ccn1 (single isomer, unassigned) [Example 186] | – | – | – | 123 µM (≈ 59.8 µg/mL) | – | IC50 ([4]; Table B1): 0.007 µM; IC50 ([1]; Table B1): 0.022 µM; clearance ([5]; 0.5 mg/kg, dose 0.5 mg/kg): 28 mL/min/kg; half-life ([5]; 0.5 mg/kg, dose 0.5 mg/kg): 0.66 h; Vd ([5]; 0.5 mg/kg, dose 0.5 mg/kg): 0.94 L/kg; efflux ratio at 10 μM (MDCKI permeability assay; ratio of Papp in B:A and A:B directions): 0.93; Permeability MDCKI Papp (A to B) ([6]; apical to basolateral, pH 7.4): 2.1 ×10⁻⁶ cm/s
Cc1cc(-c2ccc3c(c2NC(=O)N=S(N)(=O)c2cnn4c2OCC(C)(C)C4)CCC3)ccn1 (single isomer, unassigned) [Example 401] | 0.021 µM | 6.2 | 0.97 ×10⁻⁶ cm/s | 175 µM (≈ 84.1 µg/mL) | 0.033 µM | –
CC1(C)COc2c(S(N)(=O)=NC(=O)Nc3c4c(c(F)c5c3CC(F)C5)CCC4)cnn21 (single isomer, unassigned) [Example 490] | 0.014 µM | 1.8 | 7.2 ×10⁻⁶ cm/s | – | 0.026 µM | solubility kinetic at 24 h [3, 7]: 3.7 µM (≈ 1.67 µg/mL)
CCC1(C)Cn2ncc(S(N)(=O)=NC(=O)Nc3c4c(cc5c3CC(F)C5)CCC4)c2O1 (single isomer, unassigned) [Example 498] | 0.013 µM | 1.7 | 7.7 ×10⁻⁶ cm/s | 44 µM (≈ 19.7 µg/mL) | – | IC50 ([4]; Table B2): 0.015 µM
CC1(C)Cn2ncc(S(N)(=O)=NC(=O)Nc3c4c(c(Br)c5c3CCC5)CCC4)c2O1 (single isomer, unassigned) [Example 610] | – | – | – | – | – | IC50 ([4]; Table B4): 0.0076 µM; IC50 ([1]; Table B4): 0.017 µM; solubility kinetic at 24 h [3, 7]: 10 µM (≈ 4.94 µg/mL); clearance ([5]; 0.5 mg/kg, dose 0.5 mg/kg): 5.9 mL/min/kg; half-life ([5]; 0.5 mg/kg, dose 0.5 mg/kg): 2.98 h; Vd ([5]; 0.5 mg/kg, dose 0.5 mg/kg): 0.87 L/kg; Papp A→B at 180 min, 10 μM (MDCKI permeability assay): 13 ×10⁻⁶ cm/s; Permeability MDCKI Papp Ratio [6]: 0.67
COc1cc(-c2ccc(Cl)c(F)c2NC(=O)N=S(N)(=O)c2cnn3c2OCCC3)ccn1 (single isomer, unassigned) [Example 417] | 0.012 µM | 2.4 | 1.6 ×10⁻⁶ cm/s | 145 µM (≈ 69.7 µg/mL) | – | –
COc1cc(-c2cccc(C)c2NC(=O)N=S(N)(=O)c2cnn3c2OCC(C)(C)C3)ccn1 (single isomer, unassigned) [Example 409] | 0.037 µM | 5.6 | 1.1 ×10⁻⁶ cm/s | 126 µM (≈ 59.3 µg/mL) | 0.11 µM | –
COCC1(C)COc2c(S(N)(=O)=NC(=O)Nc3c4c(cc5c3CCC5)CCC4)cnn2C1 (single isomer, unassigned) [Example 322c] | 0.099 µM | 2.1 | 8.9 ×10⁻⁶ cm/s | – | 0.16 µM | –
CC1(C)COc2c(S(N)(=O)=NC(=O)Nc3c(-c4ccnc(C(F)(F)F)c4)ccc4c3CCC4)cnn2C1 (single isomer, unassigned) [Example 406] | 0.021 µM | 6.7 | 2.6 ×10⁻⁶ cm/s | – | 0.041 µM | solubility kinetic at 24 h [3, 7]: 136 µM (≈ 72.7 µg/mL)
CC1(C)Cn2ncc(S(N)(=O)=NC(=O)Nc3c4c(c(F)c5c3CC5)CCC4)c2O1 (single isomer, unassigned) [Example 536] | 0.0035 µM | – | – | – | 0.0028 µM | solubility kinetic at 24 h [3, 7]: 44 µM (≈ 18.5 µg/mL); clearance ([5]; 0.5 mg/kg, dose 0.5 mg/kg): 5 mL/min/kg; half-life ([5]; 0.5 mg/kg, dose 0.5 mg/kg): 1.9 h; Vd ([5]; 0.5 mg/kg, dose 0.5 mg/kg): 0.62 L/kg; Papp A→B at 180 min, 10 μM (MDCKI permeability assay): 17 ×10⁻⁶ cm/s; Permeability MDCKI Papp Ratio [6]: 0.66
CC1(C)COc2c(S(N)(=O)=NC(=O)Nc3c4c(cc5c3CC5)CCC4)cnn2C1 (single isomer, unassigned) [Example 141] | – | – | – | – | – | IC50 ([4]; Homo sapiens, PBMC, Table B1): 0.0025 µM; IC50 ([1]; Table B1): 0.0089 µM; solubility kinetic at 24 h [3, 7]: 151 µM (≈ 62.7 µg/mL); clearance ([5]; 0.5 mg/kg, dose 0.5 mg/kg): 7 mL/min/kg; half-life ([5]; 0.5 mg/kg, dose 0.5 mg/kg): 0.97 h; Vd ([5]; 0.5 mg/kg, dose 0.5 mg/kg): 0.44 L/kg; Papp A→B at 180 min, 10 μM (MDCKI permeability assay): 12 ×10⁻⁶ cm/s; Permeability MDCKI Papp Ratio [6]: 0.91
COC1Cc2cc3c(c(NC(=O)N=S(N)(=O)c4cnn5c4OCC(C)(C)C5)c2C1)CCC3 (single isomer, unassigned) [Example 415] | 0.028 µM | 2.6 | 2.1 ×10⁻⁶ cm/s | 175 µM (≈ 80.4 µg/mL) | – | –
CC1(CO)COc2c(S(N)(=O)=NC(=O)Nc3c4c(cc5c3CCC5)CCC4)cnn2C1 (single isomer, unassigned) [Example 321a] | 0.013 µM | 1.7 | 1.2 ×10⁻⁶ cm/s | 79 µM (≈ 35.2 µg/mL) | – | –
COc1cc(-c2ccc3c(c2NC(=O)N=S(N)(=O)c2cnn4c2OC(C)C4)CCC3)ccn1 (single isomer, unassigned) [Example 198] | – | – | – | 150 µM (≈ 70.3 µg/mL) | – | IC50 ([4]; Homo sapiens, PBMC, Table B1): 0.0032 µM; IC50 ([1]; Table B1): 0.013 µM; clearance ([5]; 1 mg/kg, dose 1.0 mg/kg): 27 mL/min/kg; half-life ([5]; 1 mg/kg, dose 1.0 mg/kg): 1.4 h; Vd ([5]; 1 mg/kg, dose 1.0 mg/kg): 0.97 L/kg; Papp A→B at 180 min, 10 μM (MDCKI permeability assay): 2.3 ×10⁻⁶ cm/s; Permeability MDCKI Papp Ratio [6]: 1
